A short description of data set [1]: Chemical stability in buffer. Type of data set: physicochemical. As to conditions: PBS(Ph 7.4) 10 um, 37° C.; read-out: Chemical Stability T½. As for the experimental part: 1 mM test compound spiking solution (spiking solution A) was prepared by adding 10 μL of 10 mM a test compound stock solution to 90 μL of DMSO. 396 μL of buffer were added into tubes designated for different time points. The samples were pre-warmed at 37° C. for 10 minutes. 4 μL of spiking solution A was added into the wells containing 396 μL of buffer that were designated as 0 min, 15 min, 45 min, or 60 min. The timer was started after the addition of the spiking solution. At each time point, 1200 μL of acetonitrile (ACN) containing an internal standard was added to the tubes. The samples were centrifuged at 10,000 rpm for 5 minutes and 100 μL of the supernatant was removed and analyzed by for LC-MS/MS analysis.

A short description of data set [2]: Metabolic stability in liver microsomes (human). Type of data set: in vitro ADME. As for the experimental part: Buffers A-C were prepared for use in the metabolic study. The buffers were as follows: Buffer A: 1.0 L of 0.1 M monobasic Potassium Phosphate buffer containing 1.0 mM EDTA; Buffer B: 1.0 L of 0.1 M Dibasic Potassium Phosphate buffer containing 1.0 mM EDTA; and Buffer C: 0.1 M Potassium Phosphate buffer, 1.0 mM EDTA, pH 7.4 by titrating 700 mL of buffer B with buffer A while monitoring with the pH meter.
Ketanserin was used as the reference compound. Reference compound and test compound spiking solutions (500 μM spiking solution) were prepared by adding 10 μL of 10 mM DMSO stock solution into 190 μL ACN. 1.5 μL of 500 μM spiking solution (0.75 mg/mL) and 18.75 μL of 20 mg/mL liver microsomes were added into 479.75 μL of Buffer C on ice.
A 6 mM NADPH stock solution was prepared by dissolving an appropriate amount of NADPH into buffer C. 30 μL of 1.5 μM spiking solution containing 0.75 mg/mL microsomes solution was dispensed to the assay plates designated for different time points (0-, 5-, 15-, 30-, 45-min) on ice. […] All the other plates were pre-incubated at 37° C. for 5 minutes. 15 μL of 6 mM NADPH stock solution was added to the plates to start the reaction and time. At 5-min, 15-min, 30-min, and 45-min, 135 μL of ACN containing internal standard were added to the wells of corresponding plates, respectively, to stop the reaction. […]
(In general: Microsomes from liver hold many membrane-bound enzymes, among them those of drug oxidation.)

Data set [3] has as its target hERG potassium channel (Homo sapiens, UniProt Q12809). Put plainly: in vitro. As to conditions: hERG Current Inhibition Rate (%) Mean.
The subject of data set [4] is SD rats. Put plainly: SD rat carrageenan acute inflammation model. Type of data set: in vivo. The settings on record: for Changes in Foot Swelling Rate (Mean ± SEM) / Foot Swelling Degrees (Mean ± SEM): SD rat carrageenan. As for the experimental part: Using an electronic caliper for accuracy, the thickness of the rat's footpad was measured. Rats were then restrained, and 100 μl of 1% carrageenan was subcutaneously injected into the right hind footpad to induce inflammation, thereby establishing an acute inflammation model using carrageenan. Each compound was administered in advance according to the respective dosing time points. The swelling of the rat's foot was measured at various time points: before modeling (0 h) and after modeling (2, 4, 7 h). A comparison was made between footpad swelling before and after modeling. […] The results of the carrageenan-induced acute inflammation model experiment are depicted in FIG. 1.

In data set [5] the test system is SD rats. Put plainly: SD rat chronic constriction injury (CCI) model. In kind it is in vivo. The settings on record: mechanical pain threshold 1, 2, 4 h post-administration, compound 8 single subcutaneous injection. An excerpt:
This model involves the use of a non-absorbable 5-0 suture to loosely ligate the sciatic nerve, causing slight compression of its outer sheath. Mechanical compression by the suture induces axonal damage, leading to abnormal discharge. Additionally, the local stimulation from the ligature induces the release of inflammatory mediators.
Furthermore, CCI selectively damages the larger myelinated fibers of the sciatic nerve while preserving most of the unmyelinated C fibers responsible for transmitting pain.
After initial screening, rats are sequentially numbered and randomly assigned to groups based on the numbering, using a random grouping method. Experimental groups are established based on trial conditions.

Data set [6] deals with T1, SSTR4 (Homo sapiens, UniProt P31391).
T1 construct: host or cells: HEK293/Gα15/SSTR4
T1 sequence (P31391 whole entry): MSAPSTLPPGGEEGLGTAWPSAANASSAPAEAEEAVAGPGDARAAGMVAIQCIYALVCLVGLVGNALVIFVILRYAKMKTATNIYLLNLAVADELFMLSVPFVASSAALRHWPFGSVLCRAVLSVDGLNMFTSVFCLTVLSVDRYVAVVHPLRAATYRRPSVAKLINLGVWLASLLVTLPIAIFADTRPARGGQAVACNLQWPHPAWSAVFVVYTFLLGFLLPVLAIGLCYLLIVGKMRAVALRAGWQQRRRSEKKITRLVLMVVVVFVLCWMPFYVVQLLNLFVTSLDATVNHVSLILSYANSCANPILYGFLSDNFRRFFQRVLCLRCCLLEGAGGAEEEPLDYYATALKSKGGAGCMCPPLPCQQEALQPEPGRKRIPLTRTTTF
Put plainly: FLIPR assay for agonists, HEK293/Gα15/SSTR4 cells. In kind it is cell-based. As to conditions: read-out: SSTR4 Agonist Activity in FLIPR Assay EC50.
Procedure: The study was carried out at HD Biosciences (Shanghai, China) according to the following steps.
Step 1: Test compounds were diluted to a 400×stock solution in DMSO in a 384-well plate.
Step 2: 1 μL of the compound solution was transferred from Step 1 to 79 μL of assay buffer, creating a 5×working solution in the 384-well plate using the Bravo method.
Step 3: HEK293/Gα15/SSTR1-5 cells were cultured in DMEM medium (10% FBS).
Step 4: When cells reached 80% confluence, the cells were separated using 0.25% trypsin-EDTA.
Step 5: The cell density was measured and the cells diluted to 1×10^6/mL using DMEM (10% FBS).
Step 6: 30 μL of cells were dispensed into each well of a Matrigel-coated 384-well plate (Corning 3764#) using a multi-channel pipette (30,000 cells per well) and cultured for 20-24 hours at 37° C. and 5% CO2.
Step 7: 10 μL of dye was added to each well in the cell plate prepared in Step 6.
Step 8: The dye and cells were incubated in the dark at 37° C. and 5% CO2 for 1 hour.
Step 9: After 1 hour, the FLIPR program was loaded, the pipette tips placed cell plate and compound plate (from Step 2) into the machine, and the run button was pressed. The program added 10 μL to 40 μL to the cell plate. FLIPR was used to read the plate at room temperature according to the specified settings and the data was saved.

Data set [7] can be described thus: Hepatocyte stability. As to conditions: rat, hepatocytes.
Procedure: Vials with hepatocytes were removed from a liquid nitrogen storage unit and immediately placed in a 37±1° C. shaking water bath for 2 min±15 sec. The hepatocytes were poured into 50 mL of hepatocytes thawing medium, mixed gently, and centrifuged at 500 rpm for 3 minutes. After centrifugation, the supernatant was carefully aspirated without disturbing the pellet. 10× the volume of pre-warmed KHB buffer (Krebs-Henseleit buffer, Sigma Cat #K3753-10X1L) with 5.6 g/L HEPES was used to resuspend the cell pellet. The pellet mixture was centrifuged at 500 rpm for 3 minutes, aspirated, and the supernatant discarded without disturbing the cell pellet. The cell viability and yield were determined. The hepatocytes were counted, and the cell suspensions were diluted to the appropriate cell density. The viable cell density was 2×10^6 cells/mL. The hepatocyte solution was placed on ice until it was used.
Two dosing solutions of prewarmed KHB (1% DMSO) were prepared. 200 μM spiking solution was prepared by adding 20 μL of substrates stock solution (10 mM) into 980 μL of DMSO. Two dosing solutions were prepared by adding 10 μL of 200 μM spiking solution into 990 μL of KHB (2 μM after dilution). The dosing solution was centrifuged at 5594 g for 15 min (Thermo Multifuge×3R). 50 μL of pre-warmed 2×dosing solution was added to the wells designated for the different time points. […] After the addition of the hepatocytes, the timer was started. The assay was placed in an incubator at 37° C. 100 μL of ACN containing IS was added to the wells designed for 0 min, the wells were mixed gently, then 50 μL of pre-warmed hepatocytes solution (2×10^6 cells/mL) was added. The wells were sealed. […] Next, the wells were sealed. After quenching, the plates were shaken on a vibrator (IKA, MTS 2/4) for 10 min at 600 rpm. The plate was sonicated for 2 min and centrifuged at 5594 g for 15 min (Thermo Multifuge×3R). 50 μL of the supernatant was transferred from each well into a 96-well sample plate containing 50 μL of ultra pure water (Millipore, ZMQS50F01) for LC/MS analysis.

Chain of hERG potassium channel (Q12809 whole entry): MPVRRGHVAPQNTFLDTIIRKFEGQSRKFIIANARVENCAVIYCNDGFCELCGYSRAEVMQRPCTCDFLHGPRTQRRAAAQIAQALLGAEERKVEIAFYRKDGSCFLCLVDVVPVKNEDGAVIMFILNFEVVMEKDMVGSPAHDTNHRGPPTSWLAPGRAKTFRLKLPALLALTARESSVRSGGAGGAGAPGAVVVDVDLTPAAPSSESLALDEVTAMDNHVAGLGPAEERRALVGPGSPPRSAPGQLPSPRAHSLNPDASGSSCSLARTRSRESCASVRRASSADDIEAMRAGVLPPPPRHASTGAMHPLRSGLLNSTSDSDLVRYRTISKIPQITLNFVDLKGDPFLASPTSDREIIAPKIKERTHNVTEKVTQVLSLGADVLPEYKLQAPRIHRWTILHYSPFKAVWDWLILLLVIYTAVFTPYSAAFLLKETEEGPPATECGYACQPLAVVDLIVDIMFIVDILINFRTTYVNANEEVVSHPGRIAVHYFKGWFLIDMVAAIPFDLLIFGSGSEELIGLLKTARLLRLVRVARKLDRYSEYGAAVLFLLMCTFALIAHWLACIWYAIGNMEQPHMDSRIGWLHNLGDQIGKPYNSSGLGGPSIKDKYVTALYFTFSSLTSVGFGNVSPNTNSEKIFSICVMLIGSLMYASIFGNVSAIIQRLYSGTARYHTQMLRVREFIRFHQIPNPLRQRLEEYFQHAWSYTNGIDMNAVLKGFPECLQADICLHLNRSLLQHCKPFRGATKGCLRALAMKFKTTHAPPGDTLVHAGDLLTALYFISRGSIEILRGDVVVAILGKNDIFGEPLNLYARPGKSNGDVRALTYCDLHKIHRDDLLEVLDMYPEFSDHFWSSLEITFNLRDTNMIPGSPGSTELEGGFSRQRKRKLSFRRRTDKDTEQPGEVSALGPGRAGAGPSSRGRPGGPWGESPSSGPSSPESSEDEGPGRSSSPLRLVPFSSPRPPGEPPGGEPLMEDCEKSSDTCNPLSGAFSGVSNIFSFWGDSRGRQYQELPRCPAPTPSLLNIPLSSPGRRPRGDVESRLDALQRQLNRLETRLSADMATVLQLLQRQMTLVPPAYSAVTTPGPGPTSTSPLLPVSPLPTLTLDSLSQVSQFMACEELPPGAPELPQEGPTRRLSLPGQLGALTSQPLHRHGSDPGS

As a reminder, the CLint scaled is the capacity of the preparation to metabolise the compound, expressed as a volume cleared per time. Lower therefore signals slow turnover. A word on the inhibition: it is the relative decrease from the control value, in per cent. A word on the EC50: it is the midpoint of the concentration-response curve. Take `CC(C)(NC(=O)[C@H]1[C@@H]2CNC[C@H]1C2)c1ncc2c(Br)cccn12` [Compound 8, (1R,5S,6r)-N-(2-(8-bromoimidazo[1,5-a]pyridin-3-yl)propan-2-yl)-3-azabicyclo[3.1.1]heptane-6-carboxamide]: the half-life at 10 μM in data set [1] came out at 81.3 h. In data set [2] (pH 7.4), this molecule displayed a CLint scaled at 1 μM of 29.5 mL/min/kg. The half-life at 1 μM in data set [2] (pH 7.4, read-out: Metabolic stability T½) stood at 1.4 h. In data set [3], the inhibition at 0.3 µM is -3.49%, the inhibition at 1 µM was -3.67%, the inhibition at 3 µM was -2.44% and the inhibition at 10 µM was -1.66%. In addition, in data set [3], the inhibition at 30 µM is -0.15%. Also, in data set [4] (0 h (before modeling)), the “Changes in Foot Swelling Rate (Mean ± SEM)” value (shortened to “Changes … (Mean ± SEM)”) is given as 0% and the “Foot Swelling Degrees (Mean ± SEM)” value was 4.02 ± 0.09 mm. Moreover, in data set [4] (2 h after modeling), the “Changes … (Mean ± SEM)” value came out at 36.28 ± 5.75% and the “Foot Swelling Degrees (Mean ± SEM)” value worked out at 5.51 ± 0.13 mm. Also, in data set [4] (4 h after modeling), the “Changes … (Mean ± SEM)” value turned out to be 42.25 ± 2.63% and the “Foot Swelling Degrees (Mean ± SEM)” value was found to be 5.78 ± 0.05 mm. Further, in data set [4] (7 h after modeling), the “Changes … (Mean ± SEM)” value was 34.30 ± 4.17% and the “Foot Swelling Degrees (Mean ± SEM)” value came out at 5.44 ± 0.11 mm. The “Anti-inflammatory effect in carrageenan model” value in data set [4] (single subcutaneous injection of 30 mg/kg, SD rats) is “demonstrated anti-inflammatory tendencies”. Moreover, the “Effect on neuropathic pain in CCI model” value in data set [5] is given as “significantly affected the SD rat CCI model”. Moreover, in data set [6], the EC50 came out at 3.33 nM.
In data set [7], `CC(C)(NC(=O)[C@H]1[C@@H]2CNC[C@H]1C2)c1nc(C2CC2)c2ccccn12` [Compound 9, (1R,5S,6r)-N-(2-(1-cyclopropylimidazo[1,5-a]pyridin-3-yl)propan-2-yl)-3-azabicyclo[3.1.1]heptane-6-carboxamide] returned a CLint scaled at 1 μM of 3.17 mL/min/kg and a half-life at 1 μM of 17.1 h.

These data come from patent US20240174693A1, “SOMATOSTATIN RECEPTOR SUBTYPE 4 (SSTR4) AGONISTS AND THEIR APPLICATIONS” (Humanwell Pharmaceutical US, priority 2022, published 2024).
